This is an account of results in BindingDB's records for PubMed 34029774 (Dpsr University, 2021).

Each structure is given as a SMILES string.

Assay [1] addresses Prostaglandin G/H synthase 2 (Homo sapiens) (UniProt P35354). The assay is described as follows: Binding affinity to human recombinant COX-2 assessed as inhibition constant preincubated for 5 mins followed by arachidonic acid addition measured every 30 sec for 10 mins by fluorescence based assay.
The target of assay [2] is Prostaglandin G/H synthase 2 (Ovis aries). The assay is described as follows: Inhibition of ovine COX-2 by colorimetric inhibitor screening assay.
For assay [3] the target is unchanged. The experiment in a line: Inhibition of ovine COX-2 colorimetric enzyme immunoassay.
The target is the same in assay [4]. The assay is described as follows: Inhibition of ovine COX-2 using arachidonic acid as substrate measured after 2 mins by colorimetric enzyme immune assay.

Chain of Prostaglandin G/H synthase 2 (Homo sapiens) (P35354 whole entry, looked up): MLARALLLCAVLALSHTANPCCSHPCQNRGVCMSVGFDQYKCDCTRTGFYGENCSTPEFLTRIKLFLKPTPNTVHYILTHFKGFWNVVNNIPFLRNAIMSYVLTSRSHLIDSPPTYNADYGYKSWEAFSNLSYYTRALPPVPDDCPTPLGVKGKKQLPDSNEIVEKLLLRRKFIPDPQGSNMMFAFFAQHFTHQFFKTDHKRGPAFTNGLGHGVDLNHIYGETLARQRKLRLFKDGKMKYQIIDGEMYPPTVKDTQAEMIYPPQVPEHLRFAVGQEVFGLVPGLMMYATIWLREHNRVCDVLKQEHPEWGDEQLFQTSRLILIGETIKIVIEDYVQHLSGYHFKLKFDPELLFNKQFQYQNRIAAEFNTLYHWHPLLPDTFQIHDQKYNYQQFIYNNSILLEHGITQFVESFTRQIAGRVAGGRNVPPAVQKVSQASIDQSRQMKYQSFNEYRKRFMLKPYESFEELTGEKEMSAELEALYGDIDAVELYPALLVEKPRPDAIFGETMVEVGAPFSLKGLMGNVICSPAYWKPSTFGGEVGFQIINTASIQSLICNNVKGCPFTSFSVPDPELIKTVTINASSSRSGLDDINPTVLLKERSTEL

Usually Ki stands for the equilibrium dissociation constant of an inhibitor or competing ligand from its target. As to `C=C(/C=C\C)/C(CSc1nnc(-c2cc(-c3ccc(OC)cc3)nc3ccccc23)n1-c1ccccc1)=N\O`, the Ki in assay [1] worked out at 94600 nM. Broadly, the IC50 is the midpoint of a concentration-inhibition curve. In the case of `CC1=C(CC(=O)Sc2ccccc2)c2cc(F)ccc2/C1=C\c1ccc([S+](C)[O-])cc1` (stereo unspecified), in assay [2], the IC50 is 1200 nM.

Regarding `COc1ccc2cc(C(C)C(=O)O/N=C(\N)c3ccc(Cl)cc3)ccc2c1` (stereo unspecified), in assay [3], the midpoint of inhibition, the IC50, lay at 7.2 nM. As to `COc1ccc(/C=C/C(=O)c2cccc(N3C(=O)c4ccccc4C3=O)c2)cc1OC`, inhibition in assay [4] was half-maximal at 170 nM (IC50).

As for `COc1ccc2cc(C(C)C(=O)O/N=C(\N)c3ccc(OC)c(OC)c3)ccc2c1` (stereo unspecified), the IC50 in assay [3] came out at 6.4 nM. For `C/C(=N/Nc1ccc(C(=O)O)cc1)c1cccc(N2C(=O)c3ccccc3C2=O)c1`, in assay [4], half-maximal inhibition (IC50) required 110 nM.
